Laboratory results taken from US7781421B2, “Neuroactive 13, 24-cyclo-18, 21-dinorcholanes and structurally related pentacyclic steriods” (Washington University, priority 2003, dated 2010).
Where two headings read alike, the source gives them in different places.

Experiments:
[1] = biological target: GABAA receptor ([35S]-TBPS binding site, rat brain cortical membranes); experiment: Displacement of [35S]-TBPS binding, rat brain cortical membranes; conditions: 5 μM GABA, 2 nM [35S]-TBPS; ± standard error of the means
Procedure: Rat brain cortical membranes were prepared with minor modifications of the method previously reported. (Hawkinson, J. E., et al., Correlation of Neuroactive Steroid Modulation of [^35S]t-Butylbicyclophosophorothionate and [^3H]Flunitrazepam Binding and γ-Aminobutyric AcidA Receptor Function, Mol. Pharmacol., 1994, 46, 977-985). Briefly, frozen rat cerebral cortices (Pel-freez, Rogers, Ak.) were thawed and homogenized in 10 volumes of ice-cold 0.32 M sucrose using a glass/Teflon pestle. The homogenate was centrifuged at 1500×g for 10 min at 4° C. The resultant supernatant was centrifuged at 10,000×g for 30 min at 4° C. The pellet (P2) from this centrifugation was resuspended in 200 mM NaCl, 50 mM potassium phosphate buffer, pH 7.4, and centrifuged at 10,000×g for 20 min at 4° C. This washing procedure was done a total of three times, and then pellets were resuspended in buffer (˜4 mL/brain) using a glass/Teflon pestle. The membrane suspension was aliquoted, frozen in liquid nitrogen, and stored at −80° C. prior to use.
[^35S]-TBPS Binding assays were done according to the procedure described previously (Hawkinson, J. E., et al., Correlation of Neuroactive Steroid Modulation of [^35S]t-Butylbicyclophosophorothionate and [^3H]Flunitrazepam Binding and γ-Aminobutyric AcidA Receptor Function, Mol. Pharmacol., 1994, 46, 977-985) with modifications. Briefly, aliquots of membrane solution (0.5 mg/mL final protein concentration in assay) were incubated with 5 μM GABA, 2 nM [^35S]-TBPS (45-120 Ci/mmol), and 5 μL aliquots of steroid in DMSO solution (final assay concentrations ranged from 1 nM to 10 μM), and brought to a final volume of 1 mL with 200 mM NaCl, 50 mM potassium phosphate buffer, pH 7.4. […] Assay tubes were incubated for 2 hr at room temperature. A Brandel (Gaithersburg, Md.) cell harvester was used for filtration of the assay tubes through Whatman/GF/C glass filter paper. Filter paper was rinsed with 4 mL of ice-cold buffer three times. Radioactivity bound to the filters was read by liquid scintillation counter and data was fit using Sigma Plot version 3.0 to the Hill equation i. f=Rmax/{1+([conc]/IC50)^n}
Where Rmax is the maximal effect, [conc] is steroid concentration, IC50 is the half-maximal inhibitor concentration and n is the Hill coefficient. Each data point was determined in triplicate and 2-3 full concentration-response curves were generated for each steroid.

[2] = biological target: T1, rat α1β2γ2 GABAA Receptor (Rattus norvegicus, UniProt P18508+P62813+P63138, INS375LLRMFSFK); experiment: Xenopus oocyte two-electrode voltage-clamp electrophysiology; assay type: cell-based; conditions: for Oocyte electrophysiology, ratio of currents in presence/absence of compound, 0.1 μM: 0.1 μM compound co-applied with 2 μM GABA; for Oocyte electrophysiology, ratio of currents in presence/absence of compound, 0.1 μM / Oocyte electrophysiology, ratio of currents in presence/absence of compound, 1 μM / Oocyte electrophysiology, ratio of currents in presence/absence of compound, 10 μM: −70 mV; for Oocyte electrophysiology, ratio of currents in presence/absence of compound, 1 μM: 1 μM compound co-applied with 2 μM GABA; for Oocyte electrophysiology, ratio of currents in presence/absence of compound, 10 μM: 10 μM compound co-applied with 2 μM GABA; for Gating (10 μM), ratio of compound only current/2 μM GABA current: direct current gated by 10 μM compound in the absence of GABA
T1 construct: from linearized pBluescript vectors containing receptor coding regions; expressed in transfected cells; host or cells: Xenopus laevis oocytes injected with in vitro transcribed capped mRNA
T1 sequence (P62813 28-455, stated change not applied): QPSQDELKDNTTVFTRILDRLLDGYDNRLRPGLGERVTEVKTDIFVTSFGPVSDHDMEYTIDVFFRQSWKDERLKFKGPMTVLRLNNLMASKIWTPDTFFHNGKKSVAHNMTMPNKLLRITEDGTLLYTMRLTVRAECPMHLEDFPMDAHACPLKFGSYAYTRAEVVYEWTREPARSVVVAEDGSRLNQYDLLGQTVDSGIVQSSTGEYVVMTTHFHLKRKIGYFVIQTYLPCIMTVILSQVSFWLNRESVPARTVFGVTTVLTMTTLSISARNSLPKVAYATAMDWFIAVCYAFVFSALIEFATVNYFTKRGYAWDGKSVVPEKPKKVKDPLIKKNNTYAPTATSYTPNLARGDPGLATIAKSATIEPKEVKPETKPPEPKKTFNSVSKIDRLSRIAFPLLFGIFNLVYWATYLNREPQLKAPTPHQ
T1 sequence (P63138 26-474, stated change not applied): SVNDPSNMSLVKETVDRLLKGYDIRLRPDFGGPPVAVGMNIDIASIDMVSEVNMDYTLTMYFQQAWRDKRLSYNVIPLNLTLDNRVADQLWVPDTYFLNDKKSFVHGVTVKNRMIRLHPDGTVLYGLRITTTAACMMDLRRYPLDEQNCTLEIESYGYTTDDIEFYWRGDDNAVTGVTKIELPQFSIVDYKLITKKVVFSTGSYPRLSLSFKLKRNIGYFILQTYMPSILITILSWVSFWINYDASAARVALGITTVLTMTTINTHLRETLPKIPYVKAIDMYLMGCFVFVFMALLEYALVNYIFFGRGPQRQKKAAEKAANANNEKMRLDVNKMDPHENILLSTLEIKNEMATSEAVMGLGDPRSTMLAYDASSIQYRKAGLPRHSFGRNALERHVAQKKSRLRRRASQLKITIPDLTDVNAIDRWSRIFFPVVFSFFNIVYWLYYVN
T1 sequence (P18508 with tags, fused parts or gaps INS375LLRMFSFK): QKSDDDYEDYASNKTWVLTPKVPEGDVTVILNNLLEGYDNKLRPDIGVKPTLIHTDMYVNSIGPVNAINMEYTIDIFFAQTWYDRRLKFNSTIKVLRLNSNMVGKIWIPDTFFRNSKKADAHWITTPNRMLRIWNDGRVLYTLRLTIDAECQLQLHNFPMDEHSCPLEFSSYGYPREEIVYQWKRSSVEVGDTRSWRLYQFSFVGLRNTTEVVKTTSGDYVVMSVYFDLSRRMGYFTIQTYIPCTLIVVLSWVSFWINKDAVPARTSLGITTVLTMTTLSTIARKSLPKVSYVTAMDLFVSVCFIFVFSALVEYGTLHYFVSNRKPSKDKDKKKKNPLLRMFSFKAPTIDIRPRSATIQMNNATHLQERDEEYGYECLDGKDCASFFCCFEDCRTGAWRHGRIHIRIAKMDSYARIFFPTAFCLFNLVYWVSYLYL
Procedure: Stage V-VI oocytes were harvested from sexually mature female Xenopus laevis (Xenopus One, Northland, Mich.) under 0.1% tricaine (3-aminobenzoic acid ethyl ester) anesthesia. Oocytes were defolliculated by shaking for 20 min at 37° C. in collagenase (2 mg/ml) dissolved in calcium-free solution containing (in mM): 96 NaCl, 2 KCl, 1 MgCl2, and 5 HEPES at pH 7.4. Capped mRNA, encoding rat GABAA receptor α1, β2 and γ2L subunits was transcribed in vitro using the mMESSAGE mMachine Kit (Ambion, Austin, Tex.) from linearized pBluescript vectors containing receptor coding regions. Subunit transcripts were injected in equal parts (20-40 ng total RNA) 8-24 hours following defolliculation. Oocytes were incubated up to 5 days at 18° C. in ND96 medium containing (in mM): 96 NaCl, 1 KCl, 1 MgCl2, 2 CaCl2 and 5 HEPES at pH 7.4, supplemented with pyruvate (5 mM), penicillin (100 U/ml), streptomycin (100 μg/ml) and gentamycin (50 μg/ml). The cDNAs for the rat GABAA-receptor subunits were originally provided by A. Tobin, University of California, Los Angels (α1), P. Malherbe, Hoffman-La Roche, Switzerland (β2), C. Fraser, National Institute on Alcohol Abuse and Alcoholism (γ2L).
Two-electrode voltage-clamp experiments were performed with a Warner OC725 amplifier 2-5 days following RNA injection. The extracellular recording solution was ND96 medium with no supplements. Intracellular recording pipettes were filled with 3 M KCl and had open tip resistances of ˜1 MΩ. Drugs were applied from a common tip via a gravity-driven multibarrel drug-delivery system. Steroids were simultaneously co-applied with GABA. Cells were clamped at −70 mV for all experiments, and peak current during 20 s drug applications was measured. Data acquisition and analysis were performed with pCLAMP software (Axon Instruments, California). Statistical differences were determined using a two-tailed Student's t-test.
The GABA concentration used for the control response was 2 μM. Each compound was evaluated on at least four different oocytes at the concentrations indicated, and the results reported are the ratio of the currents measured in the presence/absence of added compound. (G) represents direct current gated by 10 μM compound in the absence of GABA, and this current is reported as the ratio of compound only current/2 μM GABA current. Error limits are calculated as standard error of the means.

[3] = system: Xenopus laevis tadpoles; experiment: Tadpole loss of righting (LRR) and swimming (LSR) reflexes; assay type: in vivo; conditions: 3 h equilibration at room temperature; for EC50: read-out: LSR EC50 (loss of swimming response)
Procedure: Tadpole LRR was measured as described previously. (See, Wittmer, L. L., et al., Enantioselectivity of steroid-induced γ-aminobutyric acidA receptor modulation and anesthesia, Mol. Phar., 1996, 50:1581-1586). Briefly, groups of 10 early prelimb-bud stage Xenopus laevis tadpoles (Nasco, Fort Atkinson, Wis.) were placed in 100 mL of oxygenated Ringer's stock solution containing various concentrations of compound. Compounds were added from a 10 mM DMSO stock (final concentration of DMSO in test solutions ≦0.1%). After equilibrating at room temperature for 3 h, tadpoles were evaluated using the LRR and LSR behavioral endpoints. LRR was defined as failure of the tadpole to right itself within 5 sec after being flipped by a smooth glass rod. LSR was defined as failure of the tadpole to swim when touched by a smooth glass rod. In general, the tadpoles regained their righting and swimming reflexes when placed in fresh oxygenated Ringer's solution. Control beakers containing up to 0.6% DMSO produced no LRR or LSR in tadpoles.
Tadpole LRR and LSR concentration-response curves were fit using Sigma Plot version 3.0 to the Hill equation f=Rmax/{1+([conc]/EC50)^n}
where Rmax is the maximum effect, [conc] is the steroid concentration, EC50 is the half-maximal effective concentration, and n is the Hill coefficient.

Structure (SMILES) | melting point [°C] | IC50 [1] [µM] | Oocyte electrophysiology, ratio of currents in presence/absence of compound, 0.1 μM [2] | Oocyte electrophysiology, ratio of currents in presence/absence of compound, 1 μM [2] | Oocyte electrophysiology, ratio of currents in presence/absence of compound, 10 μM [2] | Gating (10 μM), ratio of compound only current/2 μM GABA current [2] | LRR ED50 (loss of righting response) [3] [µM] | EC50 [3] [µM] | EC50 ([3]; Xenopus laevis, 3 h) [µM] | Reversibility of steroid effect on GABA current (FIG. 1A) ([2]; 500 nM compound, 2 μM GABA, GABA recovery panel) | LSR EC50 (loss of swimming response) [3]
CC12CCC(O)CC1CCC1C2CCC23CC(=O)C=CC2CCC13 (stereo not drawn) [Compound 21c, (3α,5α)-3-Hydroxy-13,24-cyclo-18,21-dinorchol-20(22)-en-23-one] | 209 to 210 | 0.243 ± 0.011 | 1.59 ± 0.14 | 5.53 ± 0.66 | 16.58 ± 2.45 | 0.35 ± 0.12 | 1.28 ± 0.38 | 10 | – | – | –
CC12CCC(O)CC1CCC1C2CCC23CC(=O)C=CC2CCC13 (stereo not drawn) [Compound 22c, (3α,5β)-3-Hydroxy-13,24-cyclo-18,21-dinorchol-20(22)-en-23-one] | 209 to 211 | 0.268 ± 0.043 | 1.07 ± 0.10 | 1.83 ± 0.25 | 4.50 ± 0.46 | −0.02 ± 0.01 | 1.05 ± 0.00 | 2.72 ± 0.01 | – | – | –
CC12CCC(O)CC1CCC1C2CCC23C=CC(=O)CC2CCC13 (stereo not drawn) [Compound 30a, (3α,5α)-3-Hydroxy-13,24-Cyclo-18,21-dinorchol-23-en-22-one] | 168 to 170 | 1.26 ± 0.1 | 1.12 ± 0.08 | 1.54 ± 0.30 | 5.07 ± 0.98 | −0.04 ± 0.05 | 0.73 ± 0.16 | – | 5.48 ± 0.09 | – | –
CC12CCC(O)CC1CCC1C2CCC23C=CC(=O)CC2CCC13 (stereo not drawn) [Compound 30b, (3α,5β)-3-Hydroxy-13,24-cyclo-18,21-dinorchol-23-en-22-one] | 196.5 to 199 | 4.75 ± 0.97 | 1.87 ± 0.24 | 1.80 ± 0.25 | 4.44 ± 0.87 | 0.26 ± 0.31 | 0.56 ± 0.9 | 5.48 | – | – | –
CC12CCC(O)CC1CCC1C2CCC23C(=O)C=CCC2CCC13 (stereo not drawn) [Compound 35a, (3α,5α)-3-Hydroxy-13,24-cyclo-18,21-dinorchol-22-en-24-one] | 242 to 243 | 0.197 ± 0.023 | 1.98 ± 0.25 | 8.33 ± 0.75 | 9.45 ± 4.19 | 0.07 ± 0.10 | 1.02 ± 0.0 | 2.66 | – | readily reversible | –
CC12CCC(O)CC1CCC1C2CCC23C(=O)C=CCC2CCC13 (stereo not drawn) [Compound 35b, (3α,5β)-3-Hydroxy-13,24-cyclo-18,21-dinorchol-22-en-24-one] | 222 to 223 | 0.105 ± 0.012 | 1.36 ± 0.60 | 3.15 ± 1.19 | 21.38 ± 11.08 | 0.20 ± 0.19 | 0.40 ± 0.13 | 1 | – | – | –
C[C@]12CC[C@@H](O)C[C@@H]1CCC1C3CC[C@@H]4[C@H](C#N)CCC[C@]34CCC12 (stereo partly drawn) [Compound 39, (3α,5α,20R)-3-Hydroxy-13,24-cyclo-18,21-dinorcholane-20-carbonitrile] | 213 to 214 | 1.67 ± 0.138 | 1.04 ± 0.03 | 1.12 ± 0.08 | 1.70 ± 0.10 | 0.04 ± 0.04 | 0.49 ± 0.09 | – | – | – | None @ 10
